# Earlier results, collected in patent publication US7641924B2, “Nutritional composition for controlling blood sugar level” (Meiji Dairies Corporation, priority 2001, dated 2010).
# Tests used:
# [1] = target: isomaltase in the small intestine (Homo sapiens, UniProt P14410)
# [2] = in vivo
# isomaltase in the small intestine, sequence (P14410 whole entry): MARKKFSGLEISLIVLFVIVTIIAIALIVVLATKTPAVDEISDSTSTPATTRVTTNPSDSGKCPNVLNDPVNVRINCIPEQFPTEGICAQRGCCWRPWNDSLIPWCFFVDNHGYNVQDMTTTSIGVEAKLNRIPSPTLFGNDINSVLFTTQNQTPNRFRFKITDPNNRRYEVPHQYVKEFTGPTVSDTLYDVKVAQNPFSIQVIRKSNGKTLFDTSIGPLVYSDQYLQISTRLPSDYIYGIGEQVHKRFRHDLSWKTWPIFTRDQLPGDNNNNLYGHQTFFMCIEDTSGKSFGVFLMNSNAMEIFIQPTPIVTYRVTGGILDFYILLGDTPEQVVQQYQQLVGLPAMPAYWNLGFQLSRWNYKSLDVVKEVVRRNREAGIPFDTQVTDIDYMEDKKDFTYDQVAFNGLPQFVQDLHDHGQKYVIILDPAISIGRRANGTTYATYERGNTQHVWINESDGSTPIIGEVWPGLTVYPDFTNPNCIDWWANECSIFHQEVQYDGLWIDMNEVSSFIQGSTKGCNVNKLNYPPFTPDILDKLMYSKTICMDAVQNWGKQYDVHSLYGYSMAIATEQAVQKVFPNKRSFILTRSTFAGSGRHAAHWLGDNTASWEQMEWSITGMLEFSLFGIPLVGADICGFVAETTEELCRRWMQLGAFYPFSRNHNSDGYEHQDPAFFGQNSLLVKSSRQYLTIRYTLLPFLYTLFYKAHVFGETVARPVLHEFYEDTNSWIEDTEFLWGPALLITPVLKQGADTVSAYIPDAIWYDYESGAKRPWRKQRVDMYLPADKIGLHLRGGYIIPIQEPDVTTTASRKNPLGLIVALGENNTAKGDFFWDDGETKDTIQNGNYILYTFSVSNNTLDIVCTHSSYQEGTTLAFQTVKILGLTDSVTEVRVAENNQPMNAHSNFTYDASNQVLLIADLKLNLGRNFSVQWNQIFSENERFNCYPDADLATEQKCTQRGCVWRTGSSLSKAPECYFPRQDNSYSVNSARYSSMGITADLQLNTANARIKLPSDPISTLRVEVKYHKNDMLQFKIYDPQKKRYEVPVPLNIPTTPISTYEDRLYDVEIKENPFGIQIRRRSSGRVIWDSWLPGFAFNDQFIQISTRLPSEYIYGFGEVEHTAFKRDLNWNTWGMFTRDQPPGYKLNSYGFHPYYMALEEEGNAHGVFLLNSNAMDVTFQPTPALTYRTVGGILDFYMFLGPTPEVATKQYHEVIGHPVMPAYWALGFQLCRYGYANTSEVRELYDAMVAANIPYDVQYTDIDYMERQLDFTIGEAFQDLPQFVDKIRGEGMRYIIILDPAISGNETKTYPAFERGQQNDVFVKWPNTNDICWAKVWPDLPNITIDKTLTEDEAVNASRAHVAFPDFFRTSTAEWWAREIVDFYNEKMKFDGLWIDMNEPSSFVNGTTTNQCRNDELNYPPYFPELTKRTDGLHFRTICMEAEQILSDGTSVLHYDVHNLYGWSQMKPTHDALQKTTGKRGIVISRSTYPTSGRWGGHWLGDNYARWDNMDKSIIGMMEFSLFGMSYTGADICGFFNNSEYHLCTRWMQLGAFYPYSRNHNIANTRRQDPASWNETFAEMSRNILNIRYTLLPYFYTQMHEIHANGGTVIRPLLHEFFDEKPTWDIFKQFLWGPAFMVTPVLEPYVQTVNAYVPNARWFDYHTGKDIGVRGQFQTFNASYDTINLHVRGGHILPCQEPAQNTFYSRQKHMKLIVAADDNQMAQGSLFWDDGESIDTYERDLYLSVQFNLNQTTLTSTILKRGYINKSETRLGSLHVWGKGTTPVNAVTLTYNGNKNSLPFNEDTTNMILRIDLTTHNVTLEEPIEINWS
hydrolysis rate relative to that of palatinose ([1]; small intestine),Compound,hydrolysis rate relative to that of sucrose [1],blood glucose level after intake [2],insulin level after intake [2]
–,"OC[C@H]1O[C@H](OC[C@H]2OC(O)(CO)[C@@H](O)[C@@H]2O)[C@H](O)[C@@H](O)[C@@H]1O (some centres unmarked) [palatinose, Palatinose]",one fifth,maintained at predetermined levels over many hours,maintained at predetermined levels over many hours
about 2 times,Trehalulose,one third,–,–
